Among the data in patent US8227407B2, “Macrocyclic inhibitors of hepatitis C virus” (Medivir AB, priority 2008, dated 2012) are Ki and EC50 values, retold here.

The structures appear in SMILES notation.

The target of assay [1] is T1, full-length hepatitis C NS3 protease enzyme with NS4A cofactor (HCV NS3/4A protease) (Hepatitis C virus genotype 1a, UniProt P27958).
T1 construct: full-length hepatitis C NS3 protease enzyme
The experiment in a line: HCV NS3/4A protease inhibition assay (enzymatic). Format: biochemical. Particulars: 1 nM enzyme, 25 μM NS4A cofactor, 0.5 μM depsipeptide substrate, 30° C., competitive inhibition model. The procedure:
The aim of this in vitro assay was to measure the inhibition of HCV NS3/4A protease complexes by the compounds of the present invention. This assay provides an indication of how effective compounds of the present invention would be in inhibiting HCV NS3/4A proteolytic activity.
The inhibition of full-length hepatitis C NS3 protease enzyme was measured essentially as described in Poliakov, 2002 Prot Expression & Purification 25 363 371. Briefly, the hydrolysis of a depsipeptide substrate, Ac-DED(Edans)EEAbuψ[COO]ASK(Dabcyl)-NH2 (AnaSpec, San José, USA), was measured spectrofluorometrically in the presence of a peptide cofactor, KKGSVVIVGRIVLSGK (Åke Engström, Department of Medical Biochemistry and Microbiology, Uppsala University, Sweden). [Landro, 1997 #Biochem 36 9340-9348]. The enzyme (1 nM) was incubated in 50 mM HEPES, pH 7.5, 10 mM DTT, 40% glycerol, 0.1% n-octyl-D-glucoside, with 25 μM NS4A cofactor and inhibitor at 30° C. for 10 min, whereupon the reaction was initiated by addition of 0.5 μM substrate. Inhibitors were dissolved in DMSO, sonicated for 30 sec. and vortexed. The solutions were stored at −20° C. between measurements.
The final concentration of DMSO in the assay sample was adjusted to 3.3%. The rate of hydrolysis was corrected for inner filter effects according to published procedures. [Liu, 1999 Analytical Biochemistry 267 331-335]. […]

The subject of assay [2] is HCV replicons (Huh-7 luc/neo cells, NS3-NS5B regions of HCV type 1b). The experiment in a line: HCV replicon assay (Huh-Luc cells, luciferase readout). Format: cell-based. Particulars: Hepatitis C virus, Huh-7, 72 h, three days incubation, luciferase activity. The procedure:
The in vitro antiviral activity against HCV of the compounds of formula (I) was tested in a cellular HCV replicon system based on Lohmann et al. (1999) Science 285:110-113, with the further modifications described by Krieger et al. (2001) Journal of Virology 75: 4614-4624, which is further exemplified in the examples section. This model, while not a complete infection model for HCV, is widely accepted as the most robust and efficient model of autonomous HCV RNA replication currently available. […] It will be appreciated that it is important to distinguish between compounds that specifically interfere with HCV functions from those that exert cytotoxic or cytostatic effects in the HCV replicon model, and as a consequence cause a decrease in HCV RNA or linked reporter enzyme concentration. […]
The replicon cells were plated in 384 well plates in the presence of the test and control compounds which were added in various concentrations. Following an incubation of three days, HCV replication was measured by assaying luciferase activity (using standard luciferase assay substrates and reagents and a Perkin Elmer ViewLux™ ultraHTS microplate imager). […] The inhibitory activity of the compound on luciferase activity was monitored on the Huh-Luc cells, enabling a dose-response curve for each test compound. […]
Background: In antiviral work, replicon cells carry a viral genome segment that copies itself.

T1 sequence (P27958 1027-1657): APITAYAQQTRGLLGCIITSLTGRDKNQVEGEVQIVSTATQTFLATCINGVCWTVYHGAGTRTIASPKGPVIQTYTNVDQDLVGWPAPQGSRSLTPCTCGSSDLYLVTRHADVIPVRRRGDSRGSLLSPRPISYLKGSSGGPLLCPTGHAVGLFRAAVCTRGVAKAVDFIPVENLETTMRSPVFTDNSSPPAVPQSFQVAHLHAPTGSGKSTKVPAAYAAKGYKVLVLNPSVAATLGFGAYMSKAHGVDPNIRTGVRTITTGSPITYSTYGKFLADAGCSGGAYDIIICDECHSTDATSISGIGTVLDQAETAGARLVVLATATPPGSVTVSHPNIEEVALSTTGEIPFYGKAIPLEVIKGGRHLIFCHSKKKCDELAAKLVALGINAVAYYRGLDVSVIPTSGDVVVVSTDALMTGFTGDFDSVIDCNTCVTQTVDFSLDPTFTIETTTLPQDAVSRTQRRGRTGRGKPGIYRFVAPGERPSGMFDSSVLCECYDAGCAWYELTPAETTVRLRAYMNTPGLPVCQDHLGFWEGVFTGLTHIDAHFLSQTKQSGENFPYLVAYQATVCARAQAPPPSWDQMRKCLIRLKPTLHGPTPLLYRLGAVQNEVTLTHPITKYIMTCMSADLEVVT

In assay [1], `COc1ccc2c(O[C@@H]3C[C@H]4C(=O)N[C@]5(C(=O)NS(=O)(=O)N(C)C)C[C@H]5/C=C\CCCCN(C)C(=O)[C@@H]4C3)cc(-c3nc(C(C)C)cs3)nc2c1` [Compound 37, N-[17-[2-(4-isopropylthiazol-2-yl)-7-methoxyquinolin-4-yloxy]-13-methyl-2,14-dioxo-3,13-diazatricyclo[13.3.0.0^4,6]octadec-7-ene-4-carbonyl](dimethylamino)sulfonamide] gave an inhibitory constant (Ki) of 24 nM. The same compound displayed an EC50 in assay [2] of 0.3 µM.

For `CCN(C)S(=O)(=O)NC(=O)[C@@]12C[C@H]1/C=C\CCCCN(C)C(=O)[C@@H]1C[C@H](Oc3cc(-c4nc(C(C)C)cs4)nc4cc(OC)ccc34)C[C@H]1C(=O)N2` [Compound 38, N-[17-[2-(4-isopropylthiazol-2-yl)-7-methoxyquinolin-4-yloxy]-13-methyl-2,14-dioxo-3,13-diazatricyclo[13.3.0.0^4,6]octadec-7-ene-4-carbonyl]-[(ethyl)(methyl)amino]sulfonamide], the affinity in assay [1], expressed as Ki, was 24 nM. For the same compound, in assay [2], the concentration giving a half-maximal response (EC50) turned out to be 0.3 µM.

For orientation: Ki means the dissociation constant of the complex between target and ligand, obtained from inhibition or displacement. Lower therefore signals tighter binding. One may read the EC50 as the concentration needed to bring the measured effect to its halfway point. A higher EC50 goes with a less potent agent.
